In patent US12583866B2, “Pyrido[2,3-b][1,4]oxazines or tetrahydropyrido[2,3-b][1,4]oxazepines as IAP antagonists” (BEIGENE, LTD., priority 2020, dated 2026) one finds IC50 data, which are given here for 14 molecules.

Test [1] concerns the target T1, recombinant human cIAP1-BIR3 protein (Homo sapiens, UniProt Q13490).
T1 construct: recombinant human cIAP1-BIR3 protein; purchased Reaction biology APT-11-370
As to the kind of experiment: Recombinant human c-IAP1-BIR3 biochemical assay (HTRF, peptide displacement). The note with it: 1.2 nM cIAP1-BIR3, 3 nM AbuRPF-K(5-Fam)-NH2 peptide, read-out: Protein binding IC50 (nM) c-IAP1. As for the experimental part:
I. Recombinant human c-IAP1-BIR3 biochemical assay
(§1) Compounds disclosed herein were tested for blocking of recombinant human cIAP1-BIR3 protein (Cat: APT-11-370, Reaction biology) with its peptide in an assay based on Homogeneous Time Resolved Fluorescence. 1.2 nM recombinant human cIAP1-BIR3 protein was pre-incubated with a serial dilution of compounds disclosed herein (maximum concentration is 10 uM, 4-fold serially diluted, 10 points) at room temperature for 1 hour in an assay buffer containing 20 mM HEPES, pH 7.5, 50 mM NaCl, 0.005% Tween-20, 1 mM DTT. Then 3 nM AbuRPF-K (5-Fam)-NH2 (Cat: 709702, GL Biochem) was added to plate incubated at room temperature for 1 hour. Mab Anti-6His Tb cryptate Gold (Cat: 61HI2TLB, Cisbio Bioassays) was added to plate and further incubated at room temperature for 1 hour. The HTRF signals (ex337 nm, em520 nm/490 nm) were read on BMG PHERAstar FS instrument. The inhibition percentage of cIAP1-BIR3 interaction with its peptide in presence of increasing concentrations of compounds was calculated based on the ratio of fluorescence at 520 nm to that at 490 nm. The IC50 for each compound was derived from fitting the data to the four-parameter logistic equation by Dotmatics and summarized in table 1.
A general note: Time-resolved FRET reads energy transfer from a long-lived donor to a nearby acceptor.

Test [2] concerns the target T2, recombinant human cIAP2-BIR3 protein (Homo sapiens, UniProt Q13489).
T2 construct: recombinant human cIAP2-BIR3 protein; purchased Reaction biology APT-11-372
Description: Recombinant human c-IAP2-BIR3 biochemical assay (HTRF, peptide displacement). The note with it: 3.7 nM cIAP2-BIR3, 3.7 nM AbuRPF-K(5-Fam)-NH2 peptide, read-out: Protein binding IC50 (nM) c-IAP2. As for the experimental part: II. Recombinant Human c-IAP2-BIR3 Biochemical Assay
as §1, with “human cIAP2-BIR3” for “human cIAP1-BIR3”, “(Cat: APT-11-372,” for “(Cat: APT-11-370,”, “Fluorescence. 3.7” for “Fluorescence. 1.2”, “Then 3.7” for “Then 3”, “nM AbuRPF-K(5-Fam)-NH2” for “nM AbuRPF-K (5-Fam)-NH2”, “of cIAP2-BIR3” for “of cIAP1-BIR3”

For test [3], the target named is T3, recombinant human XIAP-BIR3 protein (Homo sapiens, UniProt P98170).
T3 construct: recombinant human XIAP-BIR3 protein; purchased Reaction biology APT-11-374
T3 sequence (P98170 241-356 limits assumed): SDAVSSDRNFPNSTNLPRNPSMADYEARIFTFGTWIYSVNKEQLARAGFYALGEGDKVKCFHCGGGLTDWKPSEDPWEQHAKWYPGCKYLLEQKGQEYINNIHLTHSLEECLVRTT
As to the kind of experiment: Recombinant human XIAP-BIR3 biochemical assay (HTRF, peptide displacement). The note with it: 3.7 nM XIAP-BIR3, 7.6 nM AbuRPF-K(5-Fam)-NH2 peptide, read-out: Protein binding IC50 (nM) XIAP. As for the experimental part:
III. Recombinant Human XIAP-BIR3 Biochemical Assay
as §1, with “human XIAP-BIR3” for “human cIAP1-BIR3”, “(Cat: APT-11-374,” for “(Cat: APT-11-370,”, “Fluorescence. 3.7” for “Fluorescence. 1.2”, “Then 7.6” for “Then 3”, “nM AbuRPF-K(5-Fam)-NH2” for “nM AbuRPF-K (5-Fam)-NH2”, “of XIAP-BIR3” for “of cIAP1-BIR3”

T1 sequence (Q13490 253-363 limits assumed): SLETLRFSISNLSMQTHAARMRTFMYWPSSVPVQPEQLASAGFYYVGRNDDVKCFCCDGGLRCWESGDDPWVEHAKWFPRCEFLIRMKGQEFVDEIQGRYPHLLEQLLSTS
T2 sequence (Q13489 238-349 limits assumed): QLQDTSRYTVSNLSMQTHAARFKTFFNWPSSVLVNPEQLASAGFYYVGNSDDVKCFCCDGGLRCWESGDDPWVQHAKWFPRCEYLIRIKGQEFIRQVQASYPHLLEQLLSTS

Usually IC50 stands for the concentration that gives 50% inhibition. `C[C@@H]1CN(CC(=O)N2c3cc(Cc4ccc(F)cc4)c(CO)nc3OC[C@@H]2C)[C@@H](CN2CCOC[C@@H]2C(F)(F)F)CN1` [Compound 91B, 1-((S)-7-(4-fluorobenzyl)-6-(hydroxymethyl)-2-methyl-2,3-dihydro-1H-pyrido[2,3-b][1,4]oxazin-1-yl)-2-((2R,5R)-5-methyl-2-(((R)-3-(trifluoromethyl)morpholino)methyl)piperazin-1-yl)ethan-1-one]: the IC50 in test [1] came to 47 nM; in test [2], 108 nM; in test [3], 543 nM.
In the case of `C[C@@H]1CN(CC(=O)N2c3cc(Cc4ccc(F)cc4)c(CO)nc3OC[C@@H]2C)[C@@H](CN2CCOC[C@H]2C2CC2)CN1` [Example 84A, 2-((2R,5R)-2-(((R)-3-cyclopropylmorpholino)methyl)-5-methylpiperazin-1-yl)-1-((S)-7-(4-fluorobenzyl)-6-(hydroxymethyl)-2-methyl-2,3-dihydro-1H-pyrido[2,3-b][1,4]oxazin-1-yl)ethan-1-one], the IC50 was 0.29 nM in test [1], 0.44 nM in test [2] and 6.4 nM in test [3].
On to `COCCOCCNC(=O)c1nc2c(cc1Cc1ccc(F)cc1)N(C(=O)CN1C[C@@H](C)NC[C@@H]1CN1[C@H](C)COC[C@H]1C)[C@@H](C)CO2` [Example 67, (S)-1-(2-((2R,5R)-2-(((3R,5R)-3,5-dimethylmorpholino)methyl)-5-methylpiperazin-1-yl)acetyl)-7-(4-fluorobenzyl)-N-(2-(2-methoxyethoxy)ethyl)-2-methyl-2,3-dihydro-1H-pyrido[2,3-b][1,4]oxazine-6-carboxamide], for which the IC50 in test [1] amounted to 0.29 nM; in test [2], 0.56 nM; in test [3], 8.2 nM.
For `C[C@@H]1CN(CC(=O)N2c3cc(Cc4ccc(F)cc4)cnc3OC[C@@H]2COCc2ccccc2)[C@@H](CN2[C@H](C)COC[C@H]2C)CN1` [Compound 23, 1-((S)-2-((benzyloxy)methyl)-7-(4-fluorobenzyl)-2,3-dihydro-1H-pyrido[2,3-b][1,4]oxazin-1-yl)-2-((2R,5R)-2-(((3R,5R)-3,5-dimethylmorpholino)methyl)-5-methylpiperazin-1-yl)ethan-1-one], the half-maximal inhibitory concentration (IC50) in test [1] was 0.13 nM; in test [2], 0.18 nM; in test [3], 6.9 nM.
Regarding `CNC(=O)c1nc2c(cc1Cc1ccc(F)cc1)N(C(=O)CN1C[C@@H](C)NC[C@@H]1CN1[C@H](C)COC[C@H]1C)[C@@H](C)CO2` [Example 68, (S)-1-(2-((2R,5R)-2-(((3R,5R)-3,5-dimethylmorpholino)methyl)-5-methylpiperazin-1-yl)acetyl)-7-(4-fluorobenzyl)-N,2-dimethyl-2,3-dihydro-1H-pyrido[2,3-b][1,4]oxazine-6-carboxamide], the IC50 was determined as 0.23 nM in test [1], 0.41 nM in test [2] and 5.5 nM in test [3].
Turning to `CC(=O)Nc1nc2c(cc1Cc1ccc(F)cc1)N(C(=O)CN1C[C@@H](C)NC[C@@H]1CN1[C@H](C)COC[C@H]1C)[C@@H](C)CO2` [Compound 116], the IC50 in test [1] worked out at 0.16 nM; in test [2] it was 0.24 nM; in test [3], 4.3 nM.
For the molecule `COCCNc1nc2c(cc1Cc1ccc(F)cc1)N(C(=O)CN1C[C@@H](C)NC[C@@H]1CN1[C@H](C)COC[C@H]1C)[C@@H](C)CO2` [Compound 108], the figures for the IC50 in test [1], in test [2] and in test [3] were 0.16 nM, 0.57 nM and 7.7 nM, respectively.
Consider `C[C@@H]1CN(CC(=O)N2c3cc(Cc4ccc(F)cc4)c(C(N)=O)nc3OC[C@@H]2C)[C@@H](CN2CCOCC2(C)C)CN1` [Example 61, (S)-1-(2-((2R,5R)-2-((3,3-dimethylmorpholino)methyl)-5-methylpiperazin-1-yl)acetyl)-7-(4-fluorobenzyl)-2-methyl-2,3-dihydro-1H-pyrido[2,3-b][1,4]oxazine-6-carboxamide], for which the IC50 in test [1] came to 0.43 nM; in test [2], 1.08 nM; in test [3] it was 14 nM.
As to `C[C@@H]1CN(CC(=O)N2CCOc3ncc(Cc4ccc(F)cc4)cc32)[C@@H](CN2[C@H](C)COC[C@H]2C)CN1` [Compound 16, 2-((2R,5R)-2-(((3R,5R)-3,5-dimethylmorpholino)methyl)-5-methylpiperazin-1-yl)-1-(7-(4-fluorobenzyl)-2,3-dihydro-1H-pyrido[2,3-b][1,4]oxazin-1-yl)ethan-1-one], the IC50 in test [1] turned out to be 0.34 nM; in test [2], 0.85 nM; in test [3], 8.4 nM.
Turning to `C[C@@H]1CN(CC(=O)N2c3cc(Cc4ccc(F)cc4)c(CO)nc3OC[C@@H]2C)[C@@H](CN2CCOC[C@H]2C(F)(F)F)CN1` [Compound 91A, 1-((S)-7-(4-fluorobenzyl)-6-(hydroxymethyl)-2-methyl-2,3-dihydro-1H-pyrido[2,3-b][1,4]oxazin-1-yl)-2-((2R,5R)-5-methyl-2-(((S)-3-(trifluoromethyl)morpholino)methyl)piperazin-1-yl)ethan-1-one], the IC50 turned out to be 0.72 nM in test [1], 1.25 nM in test [2] and 30 nM in test [3].
Regarding `Cc1nc2c(cc1Cc1ccc(F)cc1)N(C(=O)CN1C[C@@H](C)NC[C@@H]1CN1CCOC[C@H]1C)CCO2` [Compound 5, 1-(7-(4-fluorobenzyl)-6-methyl-2,3-dihydro-1H-pyrido[2,3-b][1,4]oxazin-1-yl)-2-((2R,5R)-5-methyl-2-(((R)-3-methylmorpholino)methyl)piperazin-1-yl)ethan-1-one], the half-inhibitory concentration (IC50) turned out to be 0.7 nM in test [1], 1.1 nM in test [2] and 18 nM in test [3].
As for `C[C@@H]1CN(CC(=O)N2CCOc3nc(C4CC4)c(Cc4ccc(F)cc4)cc32)[C@@H](CN2CCOC[C@H]2C)CN1` [Compound 6, 1-(6-cyclopropyl-7-(4-fluorobenzyl)-2,3-dihydro-1H-pyrido[2,3-b][1,4]oxazin-1-yl)-2-((2R,5R)-5-methyl-2-(((R)-3-methylmorpholino)methyl)piperazin-1-yl)ethan-1-one], the IC50 was 1.1 nM in test [1], 3 nM in test [2] and 61 nM in test [3].
On to `C[C@@H]1CN(CC(=O)N2c3cc(Cc4ccc(F)cc4)c(CO)nc3OC[C@@H]2C)[C@@H](CN2[C@H](C)COC[C@H]2C)CN1` [Compound 24], for which the IC50 in test [1] was found to be 0.15 nM; in test [2] it was 0.24 nM; in test [3], 4.49 nM.
Turning to `CC(C)[C@H]1COc2ncc(Cc3ccc(F)cc3)cc2N1C(=O)CN1C[C@@H](C)NC[C@@H]1CN1[C@H](C)COC[C@H]1C` [Compound 46, 2-((2R,5R)-2-(((3R,5R)-3,5-dimethylmorpholino)methyl)-5-methylpiperazin-1-yl)-1-((S)-7-(4-fluorobenzyl)-2-isopropyl-2,3-dihydro-1H-pyrido[2,3-b][1,4]oxazin-1-yl)ethan-1-one], the IC50 in test [1] amounted to 0.24 nM; in test [2], 0.47 nM; in test [3] it was 63 nM.
